Experimental data published in ChEMBL document CHEMBL4418283, “Fluorinated lysyl oxidase-like 2 inhibitors and uses thereof” (2017).
The source made the active and inactive calls. The rule behind the calls is not given here.

Key:
Lysyl oxidase homolog 2 = biological target: T1, Lysyl oxidase homolog 2 (Homo sapiens, UniProt Q9Y4K0); assay: Inhibition of human LOXL2 expressed in CHO cells assessed as reduction in amine oxidase activity incubated for 2 hrs by Amplex red based fluorescence assay; assay type: cell-based
T1 sequence (Q9Y4K0 whole entry): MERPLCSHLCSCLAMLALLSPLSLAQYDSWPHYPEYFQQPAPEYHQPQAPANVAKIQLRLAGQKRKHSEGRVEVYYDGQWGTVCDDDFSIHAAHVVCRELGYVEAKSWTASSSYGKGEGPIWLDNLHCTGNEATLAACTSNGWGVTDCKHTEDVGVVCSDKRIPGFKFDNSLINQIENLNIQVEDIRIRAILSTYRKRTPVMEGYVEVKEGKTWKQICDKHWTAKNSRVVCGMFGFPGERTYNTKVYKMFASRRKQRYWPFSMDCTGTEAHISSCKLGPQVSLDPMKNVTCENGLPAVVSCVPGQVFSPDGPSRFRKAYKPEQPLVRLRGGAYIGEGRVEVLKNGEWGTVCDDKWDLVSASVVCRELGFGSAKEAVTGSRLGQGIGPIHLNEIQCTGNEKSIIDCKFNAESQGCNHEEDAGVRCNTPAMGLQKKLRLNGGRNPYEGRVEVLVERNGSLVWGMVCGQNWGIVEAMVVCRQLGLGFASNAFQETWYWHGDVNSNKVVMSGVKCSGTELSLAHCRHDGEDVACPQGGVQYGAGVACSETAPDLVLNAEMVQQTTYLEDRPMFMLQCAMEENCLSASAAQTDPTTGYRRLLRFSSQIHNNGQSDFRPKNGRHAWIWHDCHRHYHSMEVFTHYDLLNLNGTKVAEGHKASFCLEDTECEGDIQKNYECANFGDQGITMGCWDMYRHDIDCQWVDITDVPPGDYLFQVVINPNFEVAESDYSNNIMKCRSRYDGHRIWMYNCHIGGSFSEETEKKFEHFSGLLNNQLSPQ

Mus musculus [1] = assay: Antifibrotic activity in C57BL/6 mouse model of bleomycin-induced lung fibrosis assessed as reduction in alpha smooth muscle actin level in lung at 60 mg/kg, po pre-treated 1 hr to 1 day before bleomycin injection and measured after 14 to 28 days by immunohistochemistry analysis; assay type: functional, organism-based
Mus musculus [2] = assay: Antifibrotic activity in C57BL/6 mouse model of bleomycin-induced lung fibrosis assessed as reduction in hydroxyproline in lung homogenates at 60 mg/kg, po pre-treated 1 hr to 1 day before bleomycin injection and measured after 14 to 28 days by chloramine T and Erlich's solution based assay; assay type: functional, organism-based
Mus musculus [3] = assay: Antifibrotic activity in C57BL/6 mouse model of bleomycin-induced lung fibrosis assessed as reduction in cross linked collagen level in lung at 60 mg/kg, po pre-treated 1 hr to 1 day before bleomycin injection and measured after 14 to 28 days by Masson's trichrome staining based assay; assay type: functional, organism-based
Mus musculus [4] = assay: Antifibrotic activity in C57BL/6 mouse model of bleomycin-induced lung fibrosis assessed as reduction in cross linked collagen level in lung at 60 mg/kg, po pre-treated 1 hr to 1 day before bleomycin injection and measured after 14 to 28 days by Picro-Sirius staining based assay; assay type: functional, organism-based
Mus musculus [5] = assay: Antifibrotic activity in C57BL/6 mouse model of bleomycin-induced lung fibrosis assessed as reduction in collagen level in lung at 60 mg/kg, po pre-treated 1 hr to 1 day before bleomycin injection and measured after 14 to 28 days by hydroxyproline assay; assay type: functional, organism-based
Mus musculus [6] = assay: Antifibrotic activity in C57BL/6 mouse model of bleomycin-induced lung fibrosis assessed as reduction in collagen level in lung at 60 mg/kg, po treated 7 to 14 days after bleomycin injection and measured after 14 to 28 days by hydroxyproline assay; assay type: functional, organism-based
Mus musculus [7] = assay: Antifibrotic activity in C57BL/6 mouse model of bleomycin-induced lung fibrosis assessed as reduction in cross linked collagen level in lung at 60 mg/kg, po treated 7 to 14 days after bleomycin injection and measured after 14 to 28 days by Picro-Sirius staining based assay; assay type: functional, organism-based
Mus musculus [8] = assay: Antifibrotic activity in C57BL/6 mouse model of bleomycin-induced lung fibrosis assessed as reduction in hydroxyproline in lung homogenates at 60 mg/kg, po treated 7 to 14 days after bleomycin injection and measured after 14 to 28 days by chloramine T and Erlich's solution based assay; assay type: functional, organism-based
Mus musculus [9] = assay: Antifibrotic activity in C57BL/6 mouse model of bleomycin-induced lung fibrosis assessed as reduction in cross linked collagen level in lung at 60 mg/kg, po treated 7 to 14 days after bleomycin injection and measured after 14 to 28 days by Masson's trichrome staining based assay; assay type: functional, organism-based
Mus musculus [10] = assay: Antifibrotic activity in C57BL/6 mouse model of bleomycin-induced lung fibrosis assessed as reduction in alpha smooth muscle actin level in lung at 60 mg/kg, po treated 7 to 14 days after bleomycin injection and measured after 14 to 28 days by immunohistochemistry analysis; assay type: functional, organism-based
Mus musculus [11] = assay: Antifibrotic activity in COL4A3 deficient mouse A1port model of kidney fibrosis assessed as effect on laminin a5 protein expression at 30 mg/kg, po dosed during 2 to 3 days of age and measured at 7 to 9 weeks of age by immunohistochemical analysis; assay type: functional, organism-based
Mus musculus [12] = assay: Antifibrotic activity in COL4A3 deficient mouse A1port model of kidney fibrosis assessed as effect on fibronectin protein expression at 30 mg/kg, po dosed during 2 to 3 days of age and measured at 7 to 9 weeks of age by immunohistochemical analysis; assay type: functional, organism-based
Mus musculus [13] = assay: Antifibrotic activity in COL4A3 deficient mouse A1port model of kidney fibrosis assessed as effect on albinuria level at 30 mg/kg, po dosed during 2 to 3 days of age and measured at 7 to 9 weeks of age; assay type: functional, organism-based
Mus musculus [14] = assay: Antifibrotic activity in COL4A3 deficient mouse A1port model of kidney fibrosis assessed as effect on MMP2 gene expression at 30 mg/kg, po dosed during 2 to 3 days of age and measured at 7 to 9 weeks of age by RT-PCR analysis; assay type: functional, organism-based
Mus musculus [15] = assay: Antifibrotic activity in COL4A3 deficient mouse A1port model of kidney fibrosis assessed as effect on BUN level at 30 mg/kg, po dosed during 2 to 3 days of age and measured at 7 to 9 weeks of age; assay type: functional, organism-based
Mus musculus [16] = assay: Antifibrotic activity in COL4A3 deficient mouse A1port model of kidney fibrosis assessed as effect on WT1 protein expression at 30 mg/kg, po dosed during 2 to 3 days of age and measured at 7 to 9 weeks of age by immunohistochemical analysis; assay type: functional, organism-based
Mus musculus [17] = assay: Antifibrotic activity in COL4A3 deficient mouse A1port model of kidney fibrosis assessed as effect on MMP10 gene expression at 30 mg/kg, po dosed during 2 to 3 days of age and measured at 7 to 9 weeks of age by RT-PCR analysis; assay type: functional, organism-based
Mus musculus [18] = assay: Antifibrotic activity in COL4A3 deficient mouse A1port model of kidney fibrosis assessed as effect on collagen 1 protein expression at 30 mg/kg, po dosed during 2 to 3 days of age and measured at 7 to 9 weeks of age by immunohistochemical analysis; assay type: functional, organism-based
Mus musculus [19] = assay: Antifibrotic activity in COL4A3 deficient mouse A1port model of kidney fibrosis assessed as effect on MCP1 gene expression at 30 mg/kg, po dosed during 2 to 3 days of age and measured at 7 to 9 weeks of age by RT-PCR analysis; assay type: functional, organism-based
Mus musculus [20] = assay: Antifibrotic activity in COL4A3 deficient mouse A1port model of kidney fibrosis assessed as effect on CTGF gene expression at 30 mg/kg, po dosed during 2 to 3 days of age and measured at 7 to 9 weeks of age by RT-PCR analysis; assay type: functional, organism-based
Mus musculus [21] = assay: Antifibrotic activity in COL4A3 deficient mouse A1port model of kidney fibrosis assessed as effect on integrin alpha8 protein expression at 30 mg/kg, po dosed during 2 to 3 days of age and measured at 7 to 9 weeks of age by immunohistochemical analysis; assay type: functional, organism-based
Mus musculus [22] = assay: Antifibrotic activity in COL4A3 deficient mouse A1port model of kidney fibrosis assessed as effect on TGFbeta1 gene expression at 30 mg/kg, po dosed during 2 to 3 days of age and measured at 7 to 9 weeks of age by RT-PCR analysis; assay type: functional, organism-based
Mus musculus [23] = assay: Antifibrotic activity in COL4A3 deficient mouse A1port model of kidney fibrosis assessed as effect on MMP9 gene expression at 30 mg/kg, po dosed during 2 to 3 days of age and measured at 7 to 9 weeks of age by RT-PCR analysis; assay type: functional, organism-based
Mus musculus [24] = assay: Antifibrotic activity in COL4A3 deficient mouse A1port model of kidney fibrosis assessed as effect on smooth muscle actin protein expression at 30 mg/kg, po dosed during 2 to 3 days of age and measured at 7 to 9 weeks of age by immunohistochemical analysis; assay type: functional, organism-based
Mus musculus [25] = assay: Antifibrotic activity in COL4A3 deficient mouse A1port model of kidney fibrosis assessed as effect on IL6 gene expression at 30 mg/kg, po dosed during 2 to 3 days of age and measured at 7 to 9 weeks of age by RT-PCR analysis; assay type: functional, organism-based
Mus musculus [26] = assay: Antifibrotic activity in COL4A3 deficient mouse A1port model of kidney fibrosis assessed as effect on CD45 protein expression at 30 mg/kg, po dosed during 2 to 3 days of age and measured at 7 to 9 weeks of age by immunohistochemical analysis; assay type: functional, organism-based
Mus musculus [27] = assay: Antifibrotic activity in COL4A3 deficient mouse A1port model of kidney fibrosis assessed as effect on collagen-1 protein expression at 30 mg/kg, po dosed during 2 to 3 days of age and measured at 7 to 9 weeks of age by immunohistochemical analysis; assay type: functional, organism-based
Mus musculus [28] = assay: Antifibrotic activity in COL4A3 deficient mouse A1port model of kidney fibrosis assessed as effect on MMP12 gene expression at 30 mg/kg, po dosed during 2 to 3 days of age and measured at 7 to 9 weeks of age by RT-PCR analysis; assay type: functional, organism-based

Row | Structure (SMILES) | Activity (Mus musculus [1]) | Activity (Mus musculus [2]) | Activity (Mus musculus [3]) | Activity (Mus musculus [4]) | Activity (Mus musculus [5]) | Activity (Mus musculus [6]) | Activity (Mus musculus [7]) | Activity (Mus musculus [8]) | Activity (Mus musculus [9]) | Activity (Mus musculus [10]) | further results
1 | CC(C)(C)OC(=O)N1CCN(C(=O)Cn2ccc3c(Oc4cc(CN)cc(C(F)(F)F)n4)cccc32)CC1 | – | – | – | – | – | – | – | – | – | – | IC50 (Lysyl oxidase homolog 2): < 300 nM
2 | NCc1cc(Oc2cccc(C(=O)NCCn3cnnn3)c2)nc(C(F)(F)F)c1 | Active | Active | Active | Active | Active | – | – | – | – | – | –
3 | NCc1cc(Oc2cccc(C(=O)N3C[C@H](O)[C@@H](F)C3)c2)nc(C(F)(F)F)c1 (relative stereo) | Active | Active | Active | Active | Active | Active | Active | Active | Active | Active | –
4 | NCc1cc(O[C@@H]2CCCN(C(=O)Nc3ccccc3)C2)nc(C(F)(F)F)c1 | – | – | – | – | – | – | – | – | – | – | IC50 (Lysyl oxidase homolog 2): 300 to 1000 nM
5 | NCc1cc(Oc2cccc(C(=O)N3C[C@@H](O)[C@H](F)C3)c2)nc(C(F)(F)F)c1 | Active | Active | Active | Active | Active | Active | Active | Active | Active | Active | Activity (Mus musculus [11]): Active; Activity (Mus musculus [12]): Active; Activity (Mus musculus [13]): Active; Activity (Mus musculus [14]): Active; Activity (Mus musculus [15]): Active; Activity (Mus musculus [16]): Active; Activity (Mus musculus [17]): Active; Activity (Mus musculus [18]): Active; Activity (Mus musculus [19]): Active; Activity (Mus musculus [20]): Active; Activity (Mus musculus [21]): Active; Activity (Mus musculus [22]): Active; Activity (Mus musculus [23]): Active; Activity (Mus musculus [24]): Active; Activity (Mus musculus [25]): Active; Activity (Mus musculus [26]): Active; Activity (Mus musculus [27]): Active; Activity (Mus musculus [28]): Active
6 | NCc1cc(Oc2cccc(C(=O)N3C[C@H](O)[C@@H](F)C3)c2)nc(C(F)(F)F)c1 (racemic) | Active | Active | Active | Active | Active | Active | Active | Active | Active | Active | –
7 | NCc1cc(Oc2cccc(C(=O)Nc3ccccc3)c2)nc(C(F)(F)F)c1 | Active | Active | Active | Active | Active | – | – | – | – | – | –
8 | NCc1cc(Oc2cccc3c2CCC(=O)N3)nc(C(F)(F)F)c1 | Active | Active | Active | Active | Active | – | – | – | – | – | –
9 | CS(=O)(=O)CCNC(=O)c1cccc(Oc2cc(CN)cc(C(F)(F)F)n2)c1 | Active | Active | Active | Active | Active | – | – | – | – | – | –
